Test results published in ChEMBL document CHEMBL4622974, “Leveraging an Open Science Drug Discovery Model to Develop CNS-Penetrant ALK2 Inhibitors for the Treatment of Diffuse Intrinsic Pontine Glioma” (J Med Chem, 2020).
pIC50: −log10 of the molar value.

Tests used:
[1] = molecular target: T1, Activin receptor type-1 (Homo sapiens, UniProt Q04771); assay: Inhibition of human ALK2 using casein as substrate in presence of [gamma-33P]-ATP by radiometric hotspot assay
T1 sequence (Q04771 whole entry): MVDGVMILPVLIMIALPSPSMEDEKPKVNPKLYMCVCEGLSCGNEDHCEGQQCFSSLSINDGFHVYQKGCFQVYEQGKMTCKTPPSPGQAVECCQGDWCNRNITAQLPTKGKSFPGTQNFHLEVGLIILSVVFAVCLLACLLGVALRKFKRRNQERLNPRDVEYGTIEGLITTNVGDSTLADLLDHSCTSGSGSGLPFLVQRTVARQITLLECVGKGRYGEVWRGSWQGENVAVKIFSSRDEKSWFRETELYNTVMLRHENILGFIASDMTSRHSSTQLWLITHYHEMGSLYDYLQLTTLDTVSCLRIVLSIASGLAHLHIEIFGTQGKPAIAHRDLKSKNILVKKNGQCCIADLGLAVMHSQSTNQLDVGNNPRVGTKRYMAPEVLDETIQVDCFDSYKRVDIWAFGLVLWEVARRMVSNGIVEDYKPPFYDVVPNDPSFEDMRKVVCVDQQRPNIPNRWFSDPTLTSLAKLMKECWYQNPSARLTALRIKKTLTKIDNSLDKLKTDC

[2] = molecular target: T2, TGF-beta receptor type-1 (Homo sapiens, UniProt P36897); assay: Inhibition of human ALK5 using casein as substrate in presence of [gamma-33P]-ATP by radiometric hotspot assay; format: ADME
T2 sequence (P36897 whole entry): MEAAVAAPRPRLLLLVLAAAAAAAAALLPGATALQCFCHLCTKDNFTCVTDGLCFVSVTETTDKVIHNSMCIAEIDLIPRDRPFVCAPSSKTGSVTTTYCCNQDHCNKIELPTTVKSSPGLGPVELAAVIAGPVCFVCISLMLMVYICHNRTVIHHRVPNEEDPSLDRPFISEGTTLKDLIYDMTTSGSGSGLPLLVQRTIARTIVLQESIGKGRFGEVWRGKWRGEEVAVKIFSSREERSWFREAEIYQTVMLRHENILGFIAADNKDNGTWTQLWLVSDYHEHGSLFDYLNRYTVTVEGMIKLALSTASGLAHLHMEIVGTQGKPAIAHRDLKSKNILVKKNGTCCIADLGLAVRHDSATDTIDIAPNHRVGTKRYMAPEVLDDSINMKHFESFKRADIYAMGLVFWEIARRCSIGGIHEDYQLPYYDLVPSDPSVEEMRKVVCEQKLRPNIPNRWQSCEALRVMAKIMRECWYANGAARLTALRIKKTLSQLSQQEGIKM

[3] = molecular target: T1, Activin receptor type-1; assay: Competitive displacement of PBI-6908 from nanoluciferase-fused ALK2 (unknown origin) expressed in HEK293 cells incubated for 2 hrs by NanoBRET NanoGlo substrate based NanoBRET assay; format: cell-based
[4] = molecular target: T2, TGF-beta receptor type-1; assay: Inhibition of recombinant human ALK5 expressed in HEK293 cells transfected with CAGA-luciferase and Renilla luciferase reporter after 24 hrs by dual luciferase reporter assay; format: cell-based
[5] = molecular target: Voltage-gated inwardly rectifying potassium channel KCNH2 (Homo sapiens, UniProt Q12809); assay: Inhibition of human ERG expressed in HEK293 cells after 5 mins by IonWorks barracuda patch clamp method; format: cell-based
Chain of Voltage-gated inwardly rectifying potassium channel KCNH2 (Q12809 whole entry): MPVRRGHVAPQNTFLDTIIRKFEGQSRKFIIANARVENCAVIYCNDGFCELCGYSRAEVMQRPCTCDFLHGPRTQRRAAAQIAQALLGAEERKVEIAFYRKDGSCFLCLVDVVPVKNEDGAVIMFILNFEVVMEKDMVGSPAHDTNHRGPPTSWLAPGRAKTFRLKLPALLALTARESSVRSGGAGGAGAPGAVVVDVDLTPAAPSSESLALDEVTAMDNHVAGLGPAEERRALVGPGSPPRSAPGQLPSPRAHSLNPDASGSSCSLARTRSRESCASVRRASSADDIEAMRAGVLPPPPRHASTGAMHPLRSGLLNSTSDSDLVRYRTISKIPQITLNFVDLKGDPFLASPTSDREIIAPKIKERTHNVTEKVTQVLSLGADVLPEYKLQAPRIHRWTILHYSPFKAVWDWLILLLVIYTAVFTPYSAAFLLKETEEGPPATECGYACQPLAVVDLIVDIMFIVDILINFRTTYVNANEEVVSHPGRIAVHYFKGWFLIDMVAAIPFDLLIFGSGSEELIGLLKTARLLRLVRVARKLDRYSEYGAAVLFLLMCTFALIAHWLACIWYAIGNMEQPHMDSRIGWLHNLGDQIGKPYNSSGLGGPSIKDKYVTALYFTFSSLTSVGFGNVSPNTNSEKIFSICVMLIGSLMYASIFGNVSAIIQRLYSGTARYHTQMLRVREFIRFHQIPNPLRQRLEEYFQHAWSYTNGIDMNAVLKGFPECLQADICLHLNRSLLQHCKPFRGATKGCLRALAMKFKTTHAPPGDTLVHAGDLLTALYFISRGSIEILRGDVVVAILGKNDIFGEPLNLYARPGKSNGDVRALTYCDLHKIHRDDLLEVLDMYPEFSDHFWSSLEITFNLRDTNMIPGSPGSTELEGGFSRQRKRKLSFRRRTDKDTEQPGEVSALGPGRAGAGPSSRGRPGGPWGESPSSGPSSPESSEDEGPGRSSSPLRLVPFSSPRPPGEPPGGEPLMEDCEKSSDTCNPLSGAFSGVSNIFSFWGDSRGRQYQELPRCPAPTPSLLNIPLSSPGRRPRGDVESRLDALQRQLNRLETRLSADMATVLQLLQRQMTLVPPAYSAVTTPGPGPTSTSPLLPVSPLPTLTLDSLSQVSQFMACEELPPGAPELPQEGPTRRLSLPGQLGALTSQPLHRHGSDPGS

| pIC50 [1] | pIC50 [2] | pIC50 [3] | pIC50 [4] | SMILES | pIC50 [5] |
| --- | --- | --- | --- | --- | --- |
| 7.38 | 5.33 | 6.80 | < 5.30 | COc1cc(-c2cncc(-c3ccc(N4CCNCC4)cc3)c2C2CC2)cc(OC)c1OC | – |
| 8.10 | 5.98 | 7.40 | 5.85 | COc1cc(-c2cncc(-c3ccc(N4C[C@@H](C)N[C@@H](C)C4)cc3)c2C)cc(OC)c1OC | 5.23 |
| 8.22 | 5.78 | 7.17 | 5.68 | COc1cc(-c2cncc(-c3ccc(OC4CCN(C)CC4)cc3)c2C)cc(OC)c1OC | – |
| 7.80 | 5.91 | 6.77 | < 5.30 | COc1cc(-c2cncc(-c3ccc(N4CCS(=O)(=O)CC4)cc3)c2C)cc(OC)c1OC | – |
| 7.17 | < 5.30 | 6.74 | < 5.30 | COc1cc(-c2cncc(-c3ccc(N4CCNCC4)cc3)c2C(F)(F)F)cc(OC)c1OC | – |
| 7.96 | 6.31 | 7.31 | 5.82 | COc1cc(-c2cncc(-c3ccc(N4CCNCC4)cc3)c2C#N)cc(OC)c1F | – |
| 6.99 | < 5.30 | 6.63 | < 5.30 | COc1cc(-c2cncc(-c3ccc(N4CCNCC4)cc3)c2OC)cc(OC)c1OC | – |
| 7.70 | 5.58 | 6.97 | < 5.30 | COc1cc(-c2cncc(-c3ccc(CN4CCN(C)CC4)cc3)c2C)cc(OC)c1OC | – |
| 7.66 | 5.60 | 6.57 | < 5.30 | COc1cc(-c2cncc(-c3ccc(N4CCN(C(C)=O)CC4)cc3)c2C)cc(OC)c1OC | – |
| 8.05 | 5.76 | 7.27 | 5.47 | COc1cc(-c2cncc(-c3ccc(C4CCNCC4)cc3)c2C)cc(OC)c1OC | – |

Continued, molecule first:

| SMILES | pIC50 [1] | pIC50 [2] | pIC50 [3] | pIC50 [4] | pIC50 [5] |
| --- | --- | --- | --- | --- | --- |
| COc1cc(-c2cncc(-c3ccc(N4CCN(CCF)CC4)cc3)c2C)cc(OC)c1OC | 7.77 | 5.49 | 6.75 | < 5.30 | – |
| COc1cc(-c2cncc(-c3ccc(C4=CCN(C)CC4)cc3)c2C)cc(OC)c1OC | 7.85 | 5.60 | 6.99 | 5.11 | – |
| COc1cc(-c2cncc(-c3ccc(N4CCCNCC4)cc3)c2C)cc(OC)c1OC | 7.89 | 5.52 | 7.08 | 5.34 | – |
| COc1cc(OC)cc(-c2cncc(-c3ccc(N4CCNCC4)cc3)c2C)c1 | 7.41 | < 5.30 | 6.36 | < 5.30 | – |
| COc1cc(-c2cncc(-c3ccc(N4CCOCC4)cc3)c2C)cc(OC)c1OC | 7.55 | 5.63 | 6.48 | < 5.30 | – |
| COc1cc(-c2cncc(-c3ccc(N4CCN(C(C)C)CC4)cc3)c2C)cc(OC)c1OC | 8.15 | 5.65 | 7.14 | 5.74 | 5.51 |
| CCc1c(-c2ccc(N3CCNCC3)cc2)cncc1-c1cc(OC)c(OC)c(OC)c1 | 6.74 | < 5.30 | 6.23 | < 5.30 | – |
| COc1cc(-c2cncc(-c3ccc(N4CCN(C)CC4)cc3)c2C)cc(OC)c1OC | 8.05 | 5.31 | 7.25 | < 5.30 | – |
| COc1cc(-c2cncc(-c3ccc(N4CCNCC4)cc3)c2N)cc(OC)c1OC | 6.34 | < 5.30 | 6.59 | < 5.30 | – |
| COc1cc(-c2cncc(-c3ccc(N4CCN(C(=O)N(C)C)CC4)cc3)c2C)cc(OC)c1OC | 8.40 | < 5.30 | 6.83 | < 5.30 | – |
